Activity calls are given as the source filed them. No cut-off for these calls is given here.
How the values were obtained:
MDA-MB-453 [1] = assay: Cytotoxicity against human MDA-MB-453 cells assessed as reduction in cell viability after 48 hrs by MTT assay; format: functional; conditions: MDA-MB-453, 48 h
MCF7 [2] = assay: Cytotoxicity against human MCF7 cells assessed as reduction in cell viability after 48 hrs by MTT assay; format: functional; conditions: MCF7, 48 h
DU-145 [3] = assay: Cytotoxicity against human DU145 cells assessed as reduction in cell viability after 48 hrs by MTT assay; format: functional; conditions: DU-145, 48 h
[4] = Cytotoxicity against human PC3 cells assessed as reduction in cell viability after 48 hrs by MTT assay; format: functional; conditions: PC-3, 48 h
T47D [5] = assay: Cytotoxicity against human T47D cells assessed as reduction in cell viability after 48 hrs by MTT assay; format: functional
LNCaP [6] = assay: Cytotoxicity against human LNCAP cells assessed as reduction in cell viability after 48 hrs by MTT assay; format: functional
MCF7 [7] = assay: Growth inhibition of human MCF7 cells; format: functional
Toxicity in dog = conditions: in vivo
[8] = Growth inhibition of human PC3 cells; format: functional; conditions: PC-3
[9] = Systemic bioavailability in rat; format: ADME, organism-based; conditions: in vivo
T47D [10] = assay: Growth inhibition of human T47D cells; format: functional
DU-145 [11] = assay: Growth inhibition of human DU145 cells; format: functional
MDA-MB-453 [12] = assay: Growth inhibition of human MDA-MB-453 cells; format: functional
[13] = Protein binding in plasma (unknown origin); format: ADME, cell-free; conditions: read-out: PPB (converted)
LNCaP [14] = assay: Growth inhibition of human LNCAP cells at 0.5 to 20 uM after 4 days by […] assay
MDA-MB-453 [15] = assay: Growth inhibition of human MDA-MB-453 cells at 0.5 to 20 uM after 4 days by MTT assay; format: functional, cell-based
LNCaP [16] = assay: Selectivity index, ratio of GI50 for human PC3 cells to GI50 for human LNCAP cells; format: functional
T47D [17] = assay: Growth inhibition of human T47D cells at 0.5 to 20 uM after 4 days by MTT assay; format: functional, cell-based
MCF7 [18] = assay: Growth inhibition of human MCF7 cells at 0.5 to 20 uM after 4 days by MTT assay; format: functional, cell-based
LNCaP [19] = assay: Selectivity index, ratio of GI50 for human DU145 cells to GI50 for human LNCAP cells; format: functional

GI50 (MCF7 [7]) [µM] | bioavailability [9] [%] | GI50 (T47D [10]) [µM] | GI50 (DU-145 [11]) [µM] | GI50 (MDA-MB-453 [12]) [µM] | fraction unbound [13] | Compound | GI50 (MDA-MB-453 [1]) [µM] | GI50 (MCF7 [2]) [µM] | GI50 (DU-145 [3]) [µM] | GI50 [4] [µM] | GI50 (T47D [5]) [µM] | GI50 (LNCaP [6]) [µM] | NOAEL (Toxicity in dog) [mg/kg] | GI50 [8] [µM] | growth inhibition (GI) (LNCaP [14]) | growth inhibition (GI) (MDA-MB-453 [15]) | Selectivity Index (LNCaP [16]) | growth inhibition (GI) (T47D [17]) | growth inhibition (GI) (MCF7 [18]) | Selectivity Index (LNCaP [19])
 |  |  |  |  |  | Cc1cc(=O)oc2cc(NC(=S)Nc3ccc([N+](=O)[O-])cc3)ccc12 | > 50 | 9.89 | > 50 | > 50 | > 50 | > 50 |  |  |  |  |  |  |  | 
 |  |  |  |  |  | O=c1oc2ccc(NC(=S)Nc3ccc([N+](=O)[O-])cc3)cc2c2ccccc12 | 27.6 | 13.1 | 24.1 | 22.6 | 8.68 | 12.8 |  |  |  |  |  |  |  | 
4.5 | < 1 | 4.8 | 4.9 | 5 | 0.007 | CC1(C)CC(C)(C)c2cc(NC(=S)Nc3ccc([N+](=O)[O-])cc3)ccc2S1 [SHETA-2] | 3.27 | 4.13 | 3.47 | 4.8 | 3.99 | 2.25 | > 1500 | 5 |  |  |  |  |  | 
 |  |  |  |  |  | Cc1cc2cc(NC(=S)Nc3ccc([N+](=O)[O-])cc3)ccc2[nH]1 | > 50 | > 50 | > 50 | > 50 | 21.6 | 40.5 |  |  |  |  |  |  |  | 
 |  |  |  |  |  | O=[N+]([O-])c1ccc(NC(=S)Nc2cc3c4ccccc4ccc3c3ccccc23)cc1 | 4.77 | 3.16 | 21.8 | 20 | 2.53 | 3.54 |  |  | Active | Active | 6 | Active | Active | 6
 |  |  |  |  |  | O=[N+]([O-])c1ccc(NC(=S)Nc2ccc3c(c2)Cc2cc(Br)ccc2-3)cc1 | 6.2 | 7.81 | 17.5 | 16.5 | 3.96 | 11.3 |  |  |  |  |  |  |  | 
 |  |  |  |  |  | CC1=C(/C=C/C(C)=C/C=C/C(C)=C/C(=O)O)C(C)(C)CCC1 [TRETINOIN] | 9.51 | 12.4 | 11.6 | 12.6 | 0.82 | 10.3 |  |  |  |  |  |  |  | 
 |  |  |  |  |  | CC(NC(=S)Nc1ccc([N+](=O)[O-])cc1)c1cccc2ccccc12 (stereo not drawn) | 6.27 | 6.21 | 13.7 | 13.9 | 2.94 | 6.05 |  |  |  |  | 2 |  |  | 2
 |  |  |  |  |  | Cc1ccc(NC(=S)Nc2ccc([N+](=O)[O-])cc2)cc1C | 13.5 | 17 | 35.1 | 26.8 | 8.14 | 10.6 |  |  |  |  |  |  |  | 
 |  |  |  |  |  | O=[N+]([O-])c1ccc(NC(=S)Nc2ccc3sccc3c2)cc1 | > 50 | > 50 | > 50 | > 50 | 15.3 | 23.5 |  |  |  |  |  |  |  | 
 |  |  |  |  |  | CCn1c2ccccc2c2cc(NC(=S)Nc3ccc([N+](=O)[O-])cc3)ccc21 | 6.88 | 12.8 | 5.87 | 19.6 | 9.44 | 5.86 |  |  |  |  |  |  |  | 
 |  |  |  |  |  | O=[N+]([O-])c1ccc(NC(=S)Nc2cc3ccccc3c3ccccc23)cc1 | 14.5 | 13.3 | 6.11 | 19.3 | 11.6 | 7.29 |  |  |  |  |  |  |  | 
